{"source": "patent US4455290A", "about": "“Inhibition of fibrin polymerization by a peptide isolated from fibrin Fragment D1” (Research Corporation, priority 1981, dated 1984)", "key": {"[1]": {"target": "T1, thrombin-treated NH2-terminal disulfide knot (NDSK) (Homo sapiens, UniProt P02671+P02675+P02679)", "T1 sequence (P02671 36-70 limits assumed)": "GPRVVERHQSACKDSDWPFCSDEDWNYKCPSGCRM", "T1 sequence (P02675 45-148 limits assumed)": "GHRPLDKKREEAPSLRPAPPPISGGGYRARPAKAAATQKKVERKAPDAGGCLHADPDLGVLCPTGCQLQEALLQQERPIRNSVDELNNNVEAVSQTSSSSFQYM", "T1 sequence (P02679 27-453)": "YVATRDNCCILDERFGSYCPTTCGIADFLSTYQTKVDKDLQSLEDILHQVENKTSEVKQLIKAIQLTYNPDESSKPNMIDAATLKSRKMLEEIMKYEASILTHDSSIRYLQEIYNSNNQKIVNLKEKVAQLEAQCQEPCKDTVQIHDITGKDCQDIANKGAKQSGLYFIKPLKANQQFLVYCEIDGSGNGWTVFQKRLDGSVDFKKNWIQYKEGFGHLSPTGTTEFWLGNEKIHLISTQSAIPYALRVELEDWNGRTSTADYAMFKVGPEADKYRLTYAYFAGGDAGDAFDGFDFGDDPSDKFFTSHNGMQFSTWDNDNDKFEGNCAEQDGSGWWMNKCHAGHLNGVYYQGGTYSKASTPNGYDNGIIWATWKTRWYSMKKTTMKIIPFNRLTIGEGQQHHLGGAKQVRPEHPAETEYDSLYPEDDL", "assay": "Equilibrium binding of 125-I D1 Peptide (equilibrium dialysis / Sephadex gel equilibrium), thrombin-treated NDSK"}, "intact NDSK": {"target": "T2, intact NDSK (Homo sapiens, UniProt P02671+P02675+P02679)", "T2 sequence (P02671 20-70 limits assumed)": "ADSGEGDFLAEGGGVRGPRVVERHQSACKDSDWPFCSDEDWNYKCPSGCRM", "T2 sequence (P02675 31-148 limits assumed)": "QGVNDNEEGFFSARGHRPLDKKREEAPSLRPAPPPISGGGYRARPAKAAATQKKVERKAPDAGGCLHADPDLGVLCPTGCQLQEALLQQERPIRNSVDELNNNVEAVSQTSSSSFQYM", "T2 sequence (P02679 27-104 limits assumed)": "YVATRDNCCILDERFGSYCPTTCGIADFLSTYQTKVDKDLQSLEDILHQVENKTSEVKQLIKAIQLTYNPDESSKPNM", "assay": "Equilibrium binding of 125-I D1 Peptide, intact NDSK"}}, "note": "Peptide text beside a SMILES is read from it."}
{"compound": "CC[C@H](C)[C@H](NC(=O)[C@H](CCCCN)NC(=O)[C@H](CCSC)NC(=O)[C@@H](NC(=O)[C@@H](NC(=O)[C@H](CCCCN)NC(=O)[C@H](CCCCN)NC(=O)[C@H](CCSC)NC(=O)[C@H](CO)NC(=O)[C@H](Cc1ccc(O)cc1)NC(=O)[C@H](Cc1c[nH]c2ccccc12)NC(=O)[C@H](CCCNC(=N)N)NC(=O)[C@@H](N)[C@@H](C)O)[C@@H](C)O)[C@@H](C)O)C(=O)N[C@H](C(=O)N1CCC[C@H]1C(=O)N[C@@H](Cc1ccccc1)C(=O)N[C@@H](CC(N)=O)C(=O)N[C@@H](CCCNC(=N)N)C(=O)N[C@@H](CC(C)C)C(=O)N[C@H](C(=O)N[C@H](C(=O)NCC(=O)N[C@@H](CCC(=O)O)C(=O)NCC(=O)N[C@@H](CCC(N)=O)C(=O)N[C@@H](CCC(N)=O)C(=O)N[C@@H](Cc1c[nH]cn1)C(=O)N[C@@H](Cc1c[nH]cn1)C(=O)N[C@@H](CC(C)C)C(=O)NCC(=O)NCC(=O)N[C@@H](C)C(=O)N[C@@H](CCCCN)C(=O)N[C@@H](CCC(N)=O)C(=O)N[C@@H](C)C(=O)NCC(=O)N[C@@H](CC(=O)O)C(=O)N[C@H](C(=O)O)C(C)C)[C@@H](C)CC)[C@@H](C)O)[C@@H](C)CC", "note": "[D1 Peptide] (H-TRWYSMKKTTMKIIPFNRLTIGEGQQHHLGGAKQAGDV-OH)", "values": [{"measurement": "number of binding sites on thrombin-treated NDSK", "setting": "[1]; Scatchard analysis (FIG. 6)", "value": "approximately 2.1"}, {"measurement": "n (number of binding sites)", "setting": "[1]; plot of 1/free ligand vs. total NDSK/bound protein", "value": 2.2}, {"measurement": "binding to intact NDSK", "setting": "intact NDSK", "value": "no measurable binding"}]}
